Source: patent US20250206732A1, “COMPOUNDS AND METHODS FOR THE TARGETED DEGRADATION OF KRAS” (Arvinas Operations, Inc., priority 2022, published 2025)

Molecular target: T1, AsPC-1 HiBiT-KRASG12D (Homo sapiens, UniProt P01116, G12D)
T1 construct: insert the HiBiT tag onto the N-terminus of one or more of the endogenous KRAS alleles; endogenous in cells; host or cells: AsPC-1 (ATCC CRL-1682), CRISPR-Cas9 knock-in clone, one tagged allele
Experiment: HiBiT degradation assay (G12D), AsPC-1 HiBiT-KRASG12D cells
Type: cell-based
Details: 24 hours treatment; for Dmax: ASPC1, AsPC-1 HiBiT-KRASG12D cells, maximum degradation observed; for DC50: AsPC-1 HiBiT-KRASG12D cells, HiBiT luminescence
How it was run: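 HiBiT-KRAS abundance was read as Nano-Glo HiBiT lytic luminescence (45 min, room temperature) after a PBS wash. Before that, a 4 h alamar blue fluorescence read, normalized to DMSO, monitored viability. Treatment lasted 24 hours at 37 °C, in triplicate, using AsPC-1 cells with endogenous N-terminally HiBiT-tagged KRAS G12D.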

T1 sequence (P01116 1-188 isoform P01116-2 G12D): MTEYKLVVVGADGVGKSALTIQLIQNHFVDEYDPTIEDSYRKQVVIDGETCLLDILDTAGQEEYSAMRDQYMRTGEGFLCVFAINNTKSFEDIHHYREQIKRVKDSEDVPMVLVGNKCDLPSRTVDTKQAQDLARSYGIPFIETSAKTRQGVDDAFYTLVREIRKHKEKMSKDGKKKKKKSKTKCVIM

Row | Structure (SMILES) | Dmax | DC50
1 | CCc1cccc2cc(O)cc(-c3ncc4c(N5CC6CCC(C5)N6)nc(OCCN5CCC(C6CN(c7cc([C@H](C(=O)N8C[C@H](O)C[C@H]8C(=O)N[C@@H](C)c8ccc(-c9scnc9C)cc8)C(C)C)on7)C6)CC5)nc4c3F)c12 (single isomer, unassigned) [Compound 275] | 80 to 100% | < 600 nM
2 | Cc1ncsc1-c1ccc([C@H](C)NC(=O)[C@@H]2C[C@@H](O)CN2C(=O)[C@@H](c2cc(OC[C@@H]3CC[C@]4(COc5nc(N6CC7CCC(C6)N7)c6cnc(-c7cc(O)cc(Cl)c7C7CC7)c(F)c6n5)CCCN34)no2)C(C)C)cc1 [Compound 64, (2S,4R)-1-[(2R)-2-(3-{[(3S,7aS)-7a-({[7-(3-chloro-2-cyclopropyl-5-hydroxyphenyl)-4-{3,8-diazabicyclo[3.2.1]octan-3-yl}-8-fluoropyrido[4,3-d]pyrimidin-2-yl]oxy}methyl)-hexahydro-1H-pyrrolizin-3-yl]methoxy}-1,2-oxazol-5-yl)-3-methylbutanoyl]-4-hydroxy-N-[(1S)-1-[4-(4-methyl-1,3-thiazol-5-yl)phenyl]ethyl]pyrrolidine-2-carboxamide] | 20 to 60% | < 600 nM
3 | CCc1cccc2cc(O)cc(-c3ncc4c(N5CC6CCC(C5)N6)nc(OCCN5CCC6(CC5)CN(c5cc([C@@H](C(=O)N7C[C@H](O)C[C@H]7C(=O)NCc7ccc(-c8scnc8C)cc7)C(C)C)on5)C6)nc4c3F)c12 (relative stereo) [Compound 99, (2S,4R)-1-[(2R*)-2-[3-(7-{2-[(4-{3,8-diazabicyclo[3.2.1]octan-3-yl}-7-(8-ethyl-3-hydroxynaphthalen-1-yl)-8-fluoropyrido[4,3-d]pyrimidin-2-yl)oxy]ethyl}-2,7-diazaspiro[3.5]nonan-2-yl)-1,2-oxazol-5-yl]-3-methylbutanoyl]-4-hydroxy-N-{[4-(4-methyl-1,3-thiazol-5-yl)phenyl]methyl}pyrrolidine-2-carboxamide] | 20 to 60% | > 3000 nM
4 | CCc1cccc2cc(O)cc(-c3ncc4c(N5CC6CCC(C5)N6)nc(OCCN5CCC(Oc6cc([C@H](C(=O)N7C[C@H](O)C[C@H]7C(=O)N[C@@H](C)c7ccc(-c8scnc8C)cc7)C(C)C)on6)CC5)nc4c3F)c12 (relative stereo) [Compound 138, (2S,4R)-1-[(2R*)-2-{3-[(1-{2-[(4-{3,8-diazabicyclo[3.2.1]octan-3-yl}-7-(8-ethyl-3-hydroxynaphthalen-1-yl)-8-fluoropyrido[4,3-d]pyrimidin-2-yl)oxy]ethyl}piperidin-4-yl)oxy]-1,2-oxazol-5-yl}-3-methylbutanoyl]-4-hydroxy-N-[(1S)-1-[4-(4-methyl-1,3-thiazol-5-yl)phenyl]ethyl]pyrrolidine-2-carboxamide] | 80 to 100% | < 600 nM
5 | CCc1cccc2cc(O)cc(-c3ncc4c(N5CC6CCC(C5)N6)nc(OCCN5CCC6(CC5)CC(Oc5cc([C@H](C(=O)N7C[C@H](O)C[C@H]7C(=O)N[C@@H](C)c7ccc(-c8scnc8C)cc7)C(C)C)on5)C6)nc4c3F)c12 [Compound 231] | 80 to 100% | < 600 nM
6 | C#Cc1c(F)ccc2cc(O)cc(-c3ncc4c(N5CC6CCC(C5)N6)nc(OCCN5CCC(CC6CCN(c7cc([C@@H](C(=O)N8C[C@H](O)C[C@H]8C(=O)N[C@@H](C)c8ccc(-c9scnc9C)cc8)C(C)C)on7)CC6)CC5)nc4c3F)c12 (single isomer, unassigned) [Compound 308] | 60 to 80% | < 600 nM
7 | C#Cc1c(F)ccc2cc(O)cc(-c3ncc4c(N5CC6CCC(C5)N6)nc(OCCN5CCC(CN6CCN(c7cnc(C(=O)N[C@H](C(=O)N8C[C@H](O)C[C@H]8C(=O)N[C@@H](C)c8ccc(-c9scnc9C)cc8)C(C)(C)C)cn7)CC6)CC5)nc4c3F)c12 [Compound 179, 5-{4-[(1-{2-[(4-{3,8-diazabicyclo[3.2.1]octan-3-yl}-7-(8-ethynyl-7-fluoro-3-hydroxynaphthalen-1-yl)-8-fluoropyrido[4,3-d]pyrimidin-2-yl)oxy]ethyl}piperidin-4-yl)methyl]piperazin-1-yl}-N-[(2S)-1-[(2S,4R)-4-hydroxy-2-{[(1S)-1-[4-(4-methyl-1,3-thiazol-5-yl)phenyl]ethyl]carbamoyl}pyrrolidin-1-yl]-3,3-dimethyl-1-oxobutan-2-yl]pyrazine-2-carboxamide] | 80 to 100% | < 600 nM
8 | CCc1cccc2cc(O)cc(-c3ncc4c(N5CC6CCC(C5)N6)nc(N5CC(CN6CCC(CC7CN(c8cc([C@@H](C(=O)N9C[C@H](O)C[C@H]9C(=O)N[C@@H](C)c9ccc(-c%10scnc%10C)cc9)C(C)C)on8)C7)CC6)C5)nc4c3F)c12 [Compound 189, (2S,4R)-1-[(2S)-2-(3-{3-[(1-{[1-(4-{3,8-diazabicyclo[3.2.1]octan-3-yl}-7-(8-ethyl-3-hydroxynaphthalen-1-yl)-8-fluoropyrido[4,3-d]pyrimidin-2-yl)azetidin-3-yl]methyl}piperidin-4-yl)methyl]azetidin-1-yl}-1,2-oxazol-5-yl)-3-methylbutanoyl]-4-hydroxy-N-[(1S)-1-[4-(4-methyl-1,3-thiazol-5-yl)phenyl]ethyl]pyrrolidine-2-carboxamide] |  | > 3000 nM
9 | C#Cc1c(F)ccc2cccc(-c3ncc4c(N5CC6CCC(C5)N6)nc(OC[C@@]56CCCN5[C@H](COc5cc([C@@H](C(=O)N7C[C@H](O)C[C@H]7C(=O)N[C@@H](C)c7ccc(-c8scnc8C)cc7)C(C)C)on5)CC6)nc4c3F)c12 [Compound 51, (2S,4R)-1-[(2S)-2-(3-{[(3S,7aS)-7a-{[(4-{3,8-diazabicyclo[3.2.1]octan-3-yl}-7-(8-ethynyl-7-fluoronaphthalen-1-yl)-8-fluoropyrido[4,3-d]pyrimidin-2-yl)oxy]methyl}-hexahydro-1H-pyrrolizin-3-yl]methoxy}-1,2-oxazol-5-yl)-3-methylbutanoyl]-4-hydroxy-N-[(1S)-1-[4-(4-methyl-1,3-thiazol-5-yl)phenyl]ethyl]pyrrolidine-2-carboxamide] |  | > 3000 nM
10 | C#Cc1c(F)ccc2cccc(-c3ncc4c(N5CC6CCC(C5)N6)nc(OC[C@]56CCCN5[C@H](COc5cc([C@@H](C(=O)N7C[C@H](O)C[C@H]7C(=O)N[C@@H](C)c7ccc(-c8scnc8C)cc7)C(C)C)on5)CC6)nc4c3F)c12 [Compound 317, (2S,4R)-1-[(2R)-2-[3-[[(3S,8R)-8-[[4-(3,8-diazabicyclo[3.2.1]octan-3-yl)-7-(8-ethynyl-7-fluoro-1-naphthyl)-8-fluoro-pyrido[4,3-d]pyrimidin-2-yl]oxymethyl]-1,2,3,5,6,7-hexahydropyrrolizin-3-yl]methoxy]isoxazol-5-yl]-3-methyl-butanoyl]-4-hydroxy-N-[(1S)-1-[4-(4-methylthiazol-5-yl)phenyl]ethyl]pyrrolidine-2-carboxamide] | 80 to 100% | < 600 nM
11 | CCc1cccc2cc(O)cc(-c3ncc4c(N5CC6CCC(C5)N6)nc(OCCN5CCC(COc6cc([C@@H](C(=O)N7C[C@H](O)C[C@H]7C(=O)N[C@@H](C)c7ccc(-c8ccnn8C)cc7)C(C)C)on6)CC5)nc4c3F)c12 (relative stereo) [Compound 142, (2S,4R*)-1-[(2S)-2-{3-[(1-{2-[(4-{3,8-diazabicyclo[3.2.1]octan-3-yl}-7-(8-ethyl-3-hydroxynaphthalen-1-yl)-8-fluoropyrido[4,3-d]pyrimidin-2-yl)oxy]ethyl}piperidin-4-yl)methoxy]-1,2-oxazol-5-yl}-3-methylbutanoyl]-4-hydroxy-N-[(1S)-1-[4-(1-methyl-1H-pyrazol-5-yl)phenyl]ethyl]pyrrolidine-2-carboxamide] |  | > 3000 nM
12 | CCc1cccc2cc(O)cc(-c3ncc4c(N5CC6CCC(C5)N6)nc(OCCN5CCC(N(C)c6cc([C@H](C(=O)N7C[C@H](O)C[C@H]7C(=O)N[C@@H](C)c7ccc(-c8scnc8C)cc7)C(C)C)on6)CC5)nc4c3F)c12 (relative stereo) [Compound 135, (2S,4R)-1-[(2R*)-2-{3-[(1-{2-[(4-{3,8-diazabicyclo[3.2.1]octan-3-yl}-7-(8-ethyl-3-hydroxynaphthalen-1-yl)-8-fluoropyrido[4,3-d]pyrimidin-2-yl)oxy]ethyl}piperidin-4-yl)(methyl)amino]-1,2-oxazol-5-yl}-3-methylbutanoyl]-4-hydroxy-N-[(1S)-1-[4-(4-methyl-1,3-thiazol-5-yl)phenyl]ethyl]pyrrolidine-2-carboxamide] | 80 to 100% | < 600 nM
13 | C#Cc1c(F)ccc2cc(O)cc(-c3ncc4c(N5CC6CCC(C5)N6)nc(OCCN5CCC(CC6(F)CCN(CC(=O)N[C@H](C(=O)N7C[C@H](O)C[C@H]7C(=O)N[C@@H](C)c7ccc(-c8scnc8C)cc7)C(C)(C)C)CC6)CC5)nc4c3F)c12 [Compound 157, (2S,4R)-1-[(2S)-2-(2-{4-[(1-{2-[(4-{3,8-diazabicyclo[3.2.1]octan-3-yl}-7-(8-ethynyl-7-fluoro-3-hydroxynaphthalen-1-yl)-8-fluoropyrido[4,3-d]pyrimidin-2-yl)oxy]ethyl}piperidin-4-yl)methyl]-4-fluoropiperidin-1-yl}acetamido)-3,3-dimethylbutanoyl]-4-hydroxy-N-[(1S)-1-[4-(4-methyl-1,3-thiazol-5-yl)phenyl]ethyl]pyrrolidine-2-carboxamide] | 80 to 100% | < 600 nM
14 | C#Cc1c(F)ccc2cccc(-c3ncc4c(N5CC6CCC(C5)N6)nc(OC[C@@]56CCCN5[C@H](COc5cc([C@H](C(=O)N7C[C@H](O)C[C@H]7C(=O)N[C@@H](C)c7ccc(-c8scnc8C)cc7)C(C)C)on5)CC6)nc4c3F)c12 [Compound 52, (2S,4R)-1-[(2R)-2-(3-{[(3S,7aS)-7a-{[(4-{3,8-diazabicyclo[3.2.1]octan-3-yl}-7-(8-ethynyl-7-fluoronaphthalen-1-yl)-8-fluoropyrido[4,3-d]pyrimidin-2-yl)oxy]methyl}-hexahydro-1H-pyrrolizin-3-yl]methoxy}-1,2-oxazol-5-yl)-3-methylbutanoyl]-4-hydroxy-N-[(1S)-1-[4-(4-methyl-1,3-thiazol-5-yl)phenyl]ethyl]pyrrolidine-2-carboxamide] | 80 to 100% | < 600 nM
